Results taken from the kinase profiling compilation of Christmann-Franck et al. (2016).

Experiments:
AKT1 (human) = AKT1 (human) (UniProt P31749); conditions: compound 10.0 µM
FGFR1 (human) = FGFR1 (human) (UniProt P11362); conditions: compound 10.0 µM
PIM1 (human) = PIM1 (human) (UniProt P11309); conditions: compound 10.0 µM
PRKAA1 (human) = PRKAA1 (human) (UniProt Q13131); conditions: compound 10.0 µM
PRKAA2 (human) = PRKAA2 (human) (UniProt P54646); conditions: compound 10.0 µM
PRKACA (mouse) = conditions: compound 10.0 µM; accession and sequence are those of the human protein

Sequence of PRKAA1 (human) (Q13131 whole entry, looked up): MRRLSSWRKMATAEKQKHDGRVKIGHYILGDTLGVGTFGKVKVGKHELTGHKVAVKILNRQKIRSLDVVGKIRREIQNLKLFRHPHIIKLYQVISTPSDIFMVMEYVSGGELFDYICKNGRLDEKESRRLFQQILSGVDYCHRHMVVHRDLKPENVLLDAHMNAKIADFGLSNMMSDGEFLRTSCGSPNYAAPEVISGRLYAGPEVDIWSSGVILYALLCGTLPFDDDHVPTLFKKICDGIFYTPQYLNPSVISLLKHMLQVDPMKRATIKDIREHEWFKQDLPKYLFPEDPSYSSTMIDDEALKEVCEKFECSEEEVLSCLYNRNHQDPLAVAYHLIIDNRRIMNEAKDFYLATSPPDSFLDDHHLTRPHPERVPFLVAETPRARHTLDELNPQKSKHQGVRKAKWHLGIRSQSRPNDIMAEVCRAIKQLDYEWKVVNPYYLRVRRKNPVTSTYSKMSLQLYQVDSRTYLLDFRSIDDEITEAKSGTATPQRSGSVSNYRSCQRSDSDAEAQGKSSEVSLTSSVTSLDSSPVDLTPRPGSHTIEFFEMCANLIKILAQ
Sequence of AKT1 (human) (P31749 whole entry, looked up): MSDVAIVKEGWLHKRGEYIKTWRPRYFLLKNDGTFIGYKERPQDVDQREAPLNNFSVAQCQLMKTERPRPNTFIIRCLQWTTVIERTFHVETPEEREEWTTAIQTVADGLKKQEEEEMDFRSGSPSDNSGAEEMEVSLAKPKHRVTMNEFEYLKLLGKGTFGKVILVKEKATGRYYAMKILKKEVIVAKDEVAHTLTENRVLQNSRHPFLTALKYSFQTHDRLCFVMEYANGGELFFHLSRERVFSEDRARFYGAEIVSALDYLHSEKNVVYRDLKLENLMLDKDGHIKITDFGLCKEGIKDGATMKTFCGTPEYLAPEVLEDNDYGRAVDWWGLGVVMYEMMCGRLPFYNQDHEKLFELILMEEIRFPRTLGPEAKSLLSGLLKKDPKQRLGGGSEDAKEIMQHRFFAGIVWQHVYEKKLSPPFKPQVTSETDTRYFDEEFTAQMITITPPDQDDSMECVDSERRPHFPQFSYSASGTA
Sequence of FGFR1 (human) (P11362 whole entry, looked up): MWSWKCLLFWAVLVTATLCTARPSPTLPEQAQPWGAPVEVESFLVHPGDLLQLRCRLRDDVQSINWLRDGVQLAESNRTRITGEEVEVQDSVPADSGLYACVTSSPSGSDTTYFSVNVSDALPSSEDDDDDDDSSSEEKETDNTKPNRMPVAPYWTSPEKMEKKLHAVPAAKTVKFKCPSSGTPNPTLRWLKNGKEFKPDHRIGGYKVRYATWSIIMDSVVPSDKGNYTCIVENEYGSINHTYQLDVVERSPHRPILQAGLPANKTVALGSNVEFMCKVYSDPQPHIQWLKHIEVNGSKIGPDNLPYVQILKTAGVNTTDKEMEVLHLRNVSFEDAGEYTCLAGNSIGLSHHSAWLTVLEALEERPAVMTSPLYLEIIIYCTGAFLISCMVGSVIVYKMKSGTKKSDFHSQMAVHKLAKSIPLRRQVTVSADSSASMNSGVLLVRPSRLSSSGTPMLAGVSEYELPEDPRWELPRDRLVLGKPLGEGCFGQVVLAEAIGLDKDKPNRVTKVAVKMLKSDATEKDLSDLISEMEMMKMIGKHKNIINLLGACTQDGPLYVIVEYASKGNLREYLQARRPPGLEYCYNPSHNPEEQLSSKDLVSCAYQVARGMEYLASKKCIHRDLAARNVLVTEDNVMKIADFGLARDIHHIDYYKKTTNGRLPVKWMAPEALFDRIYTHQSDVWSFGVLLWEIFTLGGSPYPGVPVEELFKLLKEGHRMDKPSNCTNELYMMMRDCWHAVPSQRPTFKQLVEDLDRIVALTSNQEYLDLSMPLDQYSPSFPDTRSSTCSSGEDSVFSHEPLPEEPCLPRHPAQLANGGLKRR
Sequence of PIM1 (human) (P11309 whole entry, looked up): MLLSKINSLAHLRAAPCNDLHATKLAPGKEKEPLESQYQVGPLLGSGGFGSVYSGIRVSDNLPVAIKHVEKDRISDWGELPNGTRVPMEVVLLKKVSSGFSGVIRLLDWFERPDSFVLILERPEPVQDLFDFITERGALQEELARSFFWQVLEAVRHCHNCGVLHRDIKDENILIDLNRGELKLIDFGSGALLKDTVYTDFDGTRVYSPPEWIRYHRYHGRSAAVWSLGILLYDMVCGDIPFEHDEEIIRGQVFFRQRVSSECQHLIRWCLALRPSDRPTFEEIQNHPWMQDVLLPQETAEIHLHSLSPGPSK
Sequence of PRKAA2 (human) (P54646 whole entry, looked up): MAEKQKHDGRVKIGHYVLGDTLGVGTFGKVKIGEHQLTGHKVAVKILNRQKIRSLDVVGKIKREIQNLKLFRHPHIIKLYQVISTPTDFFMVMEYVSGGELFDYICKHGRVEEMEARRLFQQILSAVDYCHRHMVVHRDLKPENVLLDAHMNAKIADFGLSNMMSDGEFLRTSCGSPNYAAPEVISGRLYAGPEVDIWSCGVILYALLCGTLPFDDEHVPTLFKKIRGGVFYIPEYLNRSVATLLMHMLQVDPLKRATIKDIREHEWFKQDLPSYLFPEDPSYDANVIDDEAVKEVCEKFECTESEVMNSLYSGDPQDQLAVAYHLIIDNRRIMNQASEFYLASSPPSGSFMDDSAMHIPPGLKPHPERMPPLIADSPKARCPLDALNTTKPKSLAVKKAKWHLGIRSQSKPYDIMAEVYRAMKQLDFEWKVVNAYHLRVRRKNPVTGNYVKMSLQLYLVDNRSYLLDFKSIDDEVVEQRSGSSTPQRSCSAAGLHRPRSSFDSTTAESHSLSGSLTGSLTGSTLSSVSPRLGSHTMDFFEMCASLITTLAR

SMILES | inhibition (AKT1 (human)) [%] | inhibition (FGFR1 (human)) [%] | inhibition (PIM1 (human)) [%] | inhibition (PRKAA1 (human)) [%] | inhibition (PRKAA2 (human)) [%] | inhibition (PRKACA (mouse)) [%]
N#C/C(=C(/N)Sc1ccc(N)cc1)c1ccccc1C(F)(F)F | 0 | 0 | 5 | 0 | 0 | 2
Oc1ccc(-c2nc(-c3ccc(F)cc3)c(-c3ccncc3)[nH]2)cc1 | 5 | 0 | 9 | 0 | 0 | 11
CC(C)[C@H](CO)Nc1nc(Nc2ccc(C(=O)O)c(Cl)c2)c2ncn(C(C)C)c2n1 | 0 | 59 | 10 | 0 | 0 | 21
CCN(CC)CCNC(=O)c1c(C)[nH]c(/C=C2\C(=O)Nc3ccc(F)cc32)c1C | 28 | 50 | 0 | 82 | 84 | 2
O=C1Nc2ccc(I)cc2/C1=C/c1cc(Br)c(O)c(Br)c1 | 19 | 32 | 73 | 0 | 0 | 9
Cn1cc(C2=C(c3ccc(Cl)cc3Cl)C(=O)NC2=O)c2ccccc21 | 3 | 12 | 32 | 0 | 5 | 5
CS(=O)c1ccc(-c2nc(-c3ccc(F)cc3)c(-c3ccncc3)[nH]2)cc1 (stereo not given) | 11 | 11 | 3 | 0 | 1 | 0
Cc1cc(I)ccc1Nc1c(C(=O)NOCC2CC2)cc(F)c(F)c1F | 0 | 3 | 0 | 0 | 0 | 0
N#C/C(=C\c1ccc(O)c(O)c1)C(N)=S | 0 | 11 | 30 | 0 | 0 | 4
O=C1c2ccccc2-c2n[nH]c3cccc1c23 | 0 | 1 | 9 | 0 | 0 | 0
C/C(O)=C(\C#N)C(=O)Nc1cc(Br)ccc1Br | 0 | 8 | 23 | 0 | 0 | 7
N#C/C(=C\c1ccc(O)c(O)c1)C(=O)NCc1ccccc1 | 0 | 0 | 0 | 0 | 0 | 3
O=S(=O)(c1cccc2c(Cl)cccc12)N1CCCNCC1 | 2 | 1 | 31 | 0 | 0 | 3
O=C1NC(=O)c2c1c1c3ccccc3n3c1c1c2c2ccccc2n1C1CCC3O1 | 78 | 70 | 100 | 65 | 70 | 65
CC1=C(O)C(=O)[C@@H]2OC2C1=O (stereo not given in full) | 0 | 3 | 5 | 0 | 0 | 0
CC(C)(C)n1nc(-c2ccc(Cl)cc2)c2c(N)ncnc21 | 0 | 43 | 4 | 0 | 0 | 30
CC[C@@H](CO)Nc1nc(NCc2ccccc2)c2ncn(C(C)C)c2n1 | 0 | 5 | 0 | 0 | 12 | 0
CC(=O)c1c(O)c(C)c(O)c(Cc2c(O)c3c(c(C(=O)/C=C/c4ccccc4)c2O)OC(C)(C)C=C3)c1O | 24 | 45 | 21 | 0 | 0 | 16
O=S(=O)(c1cccc2c(O)nccc12)N1CCCNCC1 | 0 | – | 19 | 0 | 0 | 19
Cc1cc2nc3c(=O)[nH]c(=O)nc-3n(C)c2cc1C=O | 24 | 22 | 23 | 0 | 0 | 11
CO[C@@H]1[C@H](N(C)C(=O)c2ccccc2)C[C@H]2O[C@]1(C)n1c3ccccc3c3c4c(c5c6ccccc6n2c5c31)C(=O)NC4 | 55 | – | 73 | 64 | – | 63
NC(=O)Nc1sc(-c2ccc(F)cc2)cc1C(N)=O | 0 | 50 | 8 | 8 | 10 | 4
CC(C)[C@H](CO)Nc1nc(Nc2cc(N)cc(Cl)c2)c2ncn(C(C)C)c2n1 | 0 | – | 6 | 5 | 3 | 13
O=S(=O)(c1cccc2cnccc12)N1CCCNCC1 | 0 | 4 | 4 | 0 | 0 | –

The remaining lines, values ahead:

inhibition (AKT1 (human)) [%] | inhibition (FGFR1 (human)) [%] | inhibition (PIM1 (human)) [%] | inhibition (PRKAA1 (human)) [%] | inhibition (PRKAA2 (human)) [%] | inhibition (PRKACA (mouse)) [%] | SMILES
16 | 8 | 11 | 0 | 0 | 8 | CS(=O)(=O)CCNCc1nc(-c2ccc3ncnc(Nc4ccc(OCc5cccc(F)c5)c(Cl)c4)c3c2)cs1
2 | 12 | 78 | 0 | 0 | 0 | Nc1ccc(-c2cccc3c(=O)cc(N4CCOCC4)oc23)cc1
0 | 0 | 0 | 0 | 0 | 1 | CC(C)N(CCC(=O)c1ccc2ccccc2c1)Cc1ccccc1
0 | 3 | 44 | 0 | 0 | 6 | CN1CCC(Nc2ncc3ncnc(Nc4ccc(F)c(Cl)c4)c3n2)CC1
39 | 37 | 50 | 7 | 32 | 21 | Fc1ccc(Cl)cc1-c1nc(Nc2ccncc2)c2nccnc2n1
18 | 60 | 9 | 1 | 1 | 32 | CC(C)(C)n1nc(-c2cccc3ccccc23)c2c(N)ncnc21
5 | 13 | 7 | 0 | 0 | 5 | Cn1cnc2c(NCc3ccccc3)nc(NCCO)nc21
0 | 9 | 0 | 9 | 0 | 12 | COc1ccc(C(=O)Nc2sc3c(c2C(N)=O)CCCC3)cc1OC
0 | 0 | 34 | 7 | 7 | 0 | O=c1cc(N2CCOCC2)nc2c3ccccc3ccn12
9 | 15 | 8 | 0 | 0 | 7 | COc1cc2c(Nc3ccc(NC(=O)c4ccccc4)cc3)ncnc2cc1OCCCN1CCOCC1
0 | 7 | 0 | 2 | 8 | 2 | COc1cc2ncnc(Nc3ccc(Cl)cc3F)c2cc1OC
0 | 7 | 14 | 0 | 0 | 5 | COc1ccc(Cl)cc1NC(=O)Nc1cc(C)nc2ccccc12
0 | 26 | 0 | 32 | 22 | 0 | Cn1cc(/C=C2/C(=O)Nc3cccnc32)c2ccccc21
0 | 13 | 27 | 0 | 0 | 1 | COc1cc2ncnc(Nc3ccc(F)c(Cl)c3)c2cc1OCCCN1CCOCC1
0 | 0 | 0 | 0 | 0 | 0 | COc1nccc(-c2c(-c3ccc(F)cc3)ncn2[C@H]2CC[C@H](O)CC2)n1
0 | 9 | 11 | 0 | 0 | 1 | c1ccc(-c2n[nH]cc2-c2ccnc3ccccc23)nc1
5 | 50 | – | 11 | 20 | 26 | CN(C)CCCn1cc(C2=C(c3c[nH]c4ccccc34)C(=O)NC2=O)c2ccccc21
21 | 14 | 0 | 17 | 22 | – | O=S(=O)(NCCNC/C=C/c1ccc(Br)cc1)c1cccc2cnccc12
0 | 0 | – | 0 | 0 | 0 | CCN(CC)CCCCN1c2ccccc2Oc2ccc(Cl)cc21
